Test: Distribution coefficient of cyclosporins between lighter organic phase and heavier aqueous phase (n-heptane/acetone/water)
Format: physicochemical
Settings: conc. in lighter phase / conc. in heavier aqueous phase at 40° C.; 75% n-heptane/25% acetone vs 50% acetone/50% water
Description: The distribution coefficient is defined herein as the ratio of the concentration (in g/unit volume) of product in the lighter phase to the concentration (in g/unit volume) of product in the heavier aqueous phase at 40° C.

Going from `C/C=C/C[C@@H](C)[C@@H](O)[C@H]1C(=O)N[C@@H](C)C(=O)N(C)CC(=O)N(C)[C@@H](CC(C)C)C(=O)N[C@@H](C(C)C)C(=O)N(C)[C@@H](CC(C)C)C(=O)N[C@@H](C)C(=O)N[C@H](C)C(=O)N(C)[C@@H](CC(C)C)C(=O)N(C)[C@@H](CC(C)C)C(=O)N(C)[C@@H](C(C)C)C(=O)N1C` [Cyclosporin B] to `C/C=C/C[C@@H](C)[C@@H](O)[C@H]1C(=O)N[C@@H]([C@@H](C)O)C(=O)N(C)CC(=O)N(C)[C@@H](CC(C)C)C(=O)N[C@@H](C(C)C)C(=O)N(C)[C@@H](CC(C)C)C(=O)N[C@@H](C)C(=O)N[C@H](C)C(=O)N(C)[C@@H](CC(C)C)C(=O)N(C)[C@@H](CC(C)C)C(=O)N(C)[C@@H](C(C)C)C(=O)N1C` [Cyclosporin C], the “Distribution coefficient (to one decimal place)” value falls from 0.4 to 0.3.

First: CCCC[C@@H](C)[C@@H](O)[C@H]1C(=O)N[C@@H](CC)C(=O)N(C)CC(=O)N(C)[C@@H](CC(C)C)C(=O)N[C@@H](C(C)C)C(=O)N(C)[C@@H](CC(C)C)C(=O)N[C@@H](C)C(=O)N[C@H](C)C(=O)N(C)[C@@H](CC(C)C)C(=O)N(C)[C@@H](CC(C)C)C(=O)N(C)[C@@H](C(C)C)C(=O)N1C [Cyclosporin Dihydro-A, dihydro-Cyclosporin A]
Second: C/C=C/C[C@@H](C)[C@@H](O)[C@H]1C(=O)N[C@@H](CCC)C(=O)N(C)CC(=O)N(C)[C@@H](CC(C)C)C(=O)N[C@@H](C(C)C)C(=O)N(C)[C@@H](CC(C)C)C(=O)N[C@@H](C)C(=O)N[C@H](C)C(=O)N(C)[C@@H](CC(C)C)C(=O)N(C)[C@@H](CC(C)C)C(=O)N(C)[C@@H](C(C)C)C(=O)N1C [Cyclosporin G]
The “Distribution coefficient (to one decimal place)” value of the first is lower: 1.0 for the first, 1.3 for the second.

Going from `C/C=C/C[C@@H](C)[C@@H](O)[C@H]1C(=O)N[C@@H](CC)C(=O)N(C)CC(=O)N(C)[C@@H](CC(C)C)C(=O)N[C@@H](C(C)C)C(=O)N[C@@H](CC(C)C)C(=O)N[C@@H](C)C(=O)N[C@H](C)C(=O)N(C)[C@@H](CC(C)C)C(=O)N(C)[C@@H](CC(C)C)C(=O)N(C)[C@@H](C(C)C)C(=O)N1C` [Cyclosporin U] to `C/C=C/C[C@@H](C)[C@@H](O)[C@@H]1NC(=O)[C@H](C(C)C)N(C)C(=O)[C@H](CC(C)C)N(C)C(=O)[C@H](CC(C)C)N(C)C(=O)[C@@H](C)NC(=O)[C@H](C)NC(=O)[C@H](CC(C)C)N(C)C(=O)[C@H](C(C)C)NC(=O)[C@H](CC(C)C)N(C)C(=O)CN(C)C(=O)[C@H](CC)NC1=O` [Cyclosporin L], the “Distribution coefficient (to one decimal place)” value falls from 0.6 to 0.5.

For `C/C=C/C[C@@H](C)[C@@H](O)[C@H]1C(=O)N[C@@H](C(C)C)C(=O)N(C)CC(=O)N(C)[C@@H](CC(C)C)C(=O)N[C@@H](C(C)C)C(=O)N(C)[C@@H](CC(C)C)C(=O)N[C@@H](C)C(=O)N[C@H](C)C(=O)N(C)[C@@H](CC(C)C)C(=O)N(C)[C@@H](CC(C)C)C(=O)N(C)[C@@H](C(C)C)C(=O)N1C` [Cyclosporin D], the “Distribution coefficient (to one decimal place)” value was 1.7.

Test: Distribution coefficient in n-heptane/isopropanol/water phase system
Format: physicochemical
Settings: lighter phase about 90% n-heptane/10% isopropanol; heavier phase about 32% isopropanol/68% water
Description: The present applicants have found an n-heptane/isopropanol/water system to be effective for purifying 33-epi-chloro-33-desoxyascomycin. In one embodiment, the following phase system is used to purify 33-epi-chloro-33-desoxyascomycin: the lighter phase comprises a mixture in weight-% of about 90% n-heptane, e.g. 89%, and about 10% isopropanol, e.g. 11%; the heavier hase comprises a mixture of about 32% isopropanol, e.g. 31%, and about 68% water, e.g. 69%.
The distribution coefficient is defined herein as the ratio of the concentration (in g/unit volume) of product in the lighter phase to the concentration (in g/unit volume) of product in the heavier aqueous phase at 40° C. The following distribution coefficients are obtained for cyclosporins between 75% n-heptane /25% acetone as lighter organic phase, and 50% acetone 50% water as heavier aqueous phase:
The distribution coefficient for 33-epi-chloro-33-desoxyascomycin is found to be around 7.6 using the above n-heptane/isopropanol/water phase system. The selectivity of ascomycin derivative side product to 33-epi-chloro-33-desoxyascomycin is found to be approximately 1.44.

In the case of `CC[C@@H]1/C=C(\C)C[C@H](C)C[C@H](OC)[C@H]2O[C@@](O)(C(=O)C(=O)N3CCCC[C@H]3C(=O)O[C@H](/C(C)=C/[C@@H]3CC[C@H](Cl)[C@H](OC)C3)[C@H](C)[C@@H](O)CC1=O)[C@H](C)C[C@@H]2OC` [33-epi-chloro-33-desoxyascomycin], the Distribution coefficient was “around 7.6”.
